# Laboratory results: publication PMC8234462, “Novel Cyclophilin Inhibitor Decreases Cell Proliferation and Tumor Growth in Models of Hepatocellular Carcinoma” (Cancers, 2021)
# Read-outs that look alike come from different tables or passages of the source.
# Legend:
# Luc+ HEPG2 xenograft = test: In vivo efficacy, xenograft tumor growth; set-up: species or system NMRI nude mice; settings: 10 mg/kg daily subcutaneous
# Method: Twenty-five percent buffered Hydroxy Propyl beta Cyclodextrin (HPbCD) was prepared from Hydroxy Propyl beta Cyclodextrin (Roquette, Lestrem, France), EDTA solution and phosphate buffer at a pH of 7.4, filtered with a […] (VWR, Cat# 28145-483, Radnor, PA, USA) and stored at 4 °C. NV651 was prepared at a concentration of 10 mg/kg with 25% buffered HPbCD (vehicle). NV651 solution was sonicated for 30 min in a water bath sonicator (Bioruptor, Diagenode, Denville, NJ, USA) and shaken for up to an hour, followed by a secondary sterilization with a 0.2-µm filter. NV651 solution was stored at 4 °C up to 2 weeks, with stability confirmed up to 3 weeks.
# HEPG2 cells were transduced with RediFect Red-FLuc-GFP (Perkin Elmer, Cat# CLS960003, Waltham, MA, USA) with a MOI = 3 and sorted for GFP^+ in a FACSAria III (BD Biosciences, Franklin Lakes, NJ, USA). […] Cell viability and a percentage of the GFP^+ cells were analyzed before the start of the in vivo experiment with a BD FACSverse cytometer (BD Biosciences, Franklin Lakes, NJ, USA). […]
# Tumor growth was assessed with an in vivo imaging system (IVIS) one week after the injection of the cells. […] Body weights were measured at time 0 of the treatment and twice a week after the beginning of the treatment. […] Tumor growth was analyzed for up to 3 weeks. […]
# [1] = system: primary human hepatocytes; test: Cell health parameters by fluorescent imaging (ArrayScan); assay type: cell-based; settings: for AC50: Hepatocyte
# Method: This experiment was performed in Cyprotex (Watertown, MA, USA). Cryopreserved Primary human hepatocytes plated on 384 black-well plate cells were dosed with NV651 at a range of concentrations (0.195, 0.391, 0.781, 1.56, 3.13, 6.25, 12.5, 25, 50 and 100 µM). At the end of the incubation period (24 or 48 h), several health parameters were analyzed to evaluate the potential cytotoxicity of NV651 in primary human hepatocytes, including the total cell count with Hoechst staining and PI subtraction (a nonpermeable dye to quantify dead cells), nuclear intensity, Glutathione content (GSH), mitochondrial membrane potential, reactive oxygen species (ROS), steatosis, nuclear size and DNA structure. Plates were then scanned using an automated fluorescent cellular imager, ArrayScan (Thermo Scientific Cellomics).
# PHA-stimulated PBMCs = test: Cytotoxicity, CellTiter Glo; assay type: cell-based; settings: Homo sapiens, PBMC, 72 h, 3 days of treatment, read-out: IC50 (50% reduction in cell viability)
# Method: (§1) The evaluation of the off-target effects of NV651 was performed by ImQuest BioSciences Inc. (Frederick, MD, USA) by analyzing the cytotoxicity in a panel of primary cells. NV651 was evaluated at a concentration of 30 µM and five serial half-logarithmic dilutions in triplicate. The positive control compounds for each cell type were purchased from Sigma-Aldrich (St. Louis, MO, USA) and were as follows:
# (§2) Human unstimulated or PHA-P-stimulated PBMCs were isolated by Ficoll hypaque centrifugation from whole blood and resuspended in a fresh tissue culture medium containing IL-2. Cells were seeded at a concentration of 5 × 10^5 /mL in a 96-well plate followed by NV651 treatment in triplicate for 3 days. Cell viability was measured with CellTiter Glo (Promega, Madison, WI, USA).
# (§3) CellTiter Glo was performed to evaluate cell viability. CellTiter Glo Luminescent Cell Viability Assay (Promega, Madison, WI, USA) was performed according to the manufacturer’s instructions.
# Unstimulated PBMCs = test: Cytotoxicity, CellTiter Glo; assay type: cell-based; settings: Homo sapiens, PBMC, 72 h, 3 days of treatment, read-out: IC50 (50% reduction in cell viability)
# Method: as §1, §2, §3
# HUH7 = test: Cell cycle analysis (PI DNA content); assay type: cell-based, human
# Method: (§4) For the quantification of the DNA content, cells were treated with DMSO or 100 nM of NV651. Samples were collected at 24, 48, 72 and 96 h, followed by fixation with 70% (v/v) ethanol. DNA was stained with 50-µg/mL PI. Due to the capacity of PI to stain any type of nucleotide, RNase (100 µg/mL) (Sigma-Aldrich, Cat# R4875-100MG, St. Louis, MO, USA) was also added. To quantify the apoptotic cell fraction, we measured the subG1 fraction in the cell cycle.
# (§5) Data was acquired with FACSverse Instrument and analyzed with FCS Express 6 Flow Research.
# HEPG2 = test: Cell cycle analysis (PI DNA content); assay type: cell-based, human
# Method: as §4, §5
# iPS neurons = test: Cytotoxicity, CellTiter Glo; assay type: cell-based; settings: Homo sapiens, Neuron, 72 h, 3 days of treatment, read-out: IC50 (50% reduction in cell viability)
# Method: as §1, §3
# Monocytes/Macrophages = test: Cytotoxicity, CellTiter Glo; assay type: cell-based; settings: Homo sapiens, 168 h, 7 days of treatment, read-out: IC50 (50% reduction in cell viability)
# Method: as §1, §3
# Hepatocytes = test: Cytotoxicity, CellTiter Glo; assay type: cell-based; settings: Homo sapiens, Hepatocyte, 48 h, 2 days of treatment, read-out: IC50 (50% reduction in cell viability)
# Method: as §1, §3
smiles,measurement,setting,value
CC(=O)CCC1C(=O)NC(C(C)C)C(=O)NC(Cc2cc(O)cc(F)c2)C(=O)N2CCCC(N2)C(=O)OC(C(C)=CC=CC(=O)OC(C)(C)C)CC=CC=CC(O)C(C)C1O (centres unmarked) [NV651],"luminescence signal (tumor growth, IVIS) vs vehicle",Luc+ HEPG2 xenograft; after 3 weeks of treatment,significantly reduced
same,tumor growth by caliper measurements vs vehicle,Luc+ HEPG2 xenograft; up to 3 weeks,reduced tumor growth
same,"MEC, Glutathione content",[1]; 24 h,2.62 µM
same,"MEC, Mitochondrial Membrane potential",[1]; 24 h,12.40 µM
same,"MEC, Nuclear intensity",[1]; 24 h,8.90 µM
same,"MEC, ROS",[1]; 24 h,6.43 µM
same,"MEC, Cell count (PI corrected)",[1]; 48 h,6.14 µM
same,"MEC, DNA structure",[1]; 48 h,10.90 µM
same,"MEC, Nuclear size",[1]; 48 h,18.10 µM
same,"MEC, Steatosis",[1]; 48 h,6.81 µM
same,AC50,"[1]; 24 h, read-out: AC50, Glutathione content",10.9 µM
same,AC50,"[1]; 24 h, read-out: AC50, Mitochondrial Membrane potential",14.2 µM
same,AC50,"[1]; 24 h, read-out: AC50, Nuclear intensity",8.94 µM
same,AC50,"[1]; 24 h, read-out: AC50, ROS",8.17 µM
same,AC50,"[1]; 48 h, read-out: AC50, Cell count (PI corrected)",13.9 µM
same,AC50,"[1]; 48 h, read-out: AC50, DNA structure",34.4 µM
same,AC50,"[1]; 48 h, read-out: AC50, Nuclear size",21.5 µM
same,AC50,"[1]; 48 h, read-out: AC50, Steatosis",39 µM
same,IC50,PHA-stimulated PBMCs,> 30 µM
same,IC50,Unstimulated PBMCs,> 30 µM
same,cell size (FSC-A),HUH7; 100 nM NV651,increased trend in the cell size
same,cell cycle distribution (DNA content),"HUH7; 100 nM NV651, after 48–72 h",block in the G2/M phase
same,subG1 fraction (apoptotic cells),HUH7; 100 nM NV651 up to 96 h,statistically significant increase in cell death
same,cell size (FSC-A),HEPG2; 100 nM NV651,increased trend in the cell size
same,cell cycle distribution (DNA content),"HEPG2; 100 nM NV651, after 48–72 h",block in the G2/M phase
same,subG1 fraction (apoptotic cells),HEPG2; 100 nM NV651 up to 96 h,statistically significant increase in cell death
same,IC50,iPS neurons,> 30 µM
same,IC50,Monocytes/Macrophages,24.3 µM
same,IC50,Hepatocytes,> 30 µM
